Assays:
INS- cells = experiment: High-content survival / inhibitory curve, hESC-derived INS- cells; assay type: cell-based, human; conditions: H1 hESC-derived, β-cell differentiation protocol 1, 4 days treatment, n = 8
Procedure: The screening library ToxCast Phase I was obtained from the US Environmental Protection Agency, which contains approximately 2000 compounds dissolved at 20 mM in DMSO. The H1 hESC-derived population was dissociated with Accutase and re-plated onto laminin V-coated 384-well plates at 5000 cells per well. After 16 h incubation, cells were treated with individual compounds from the ToxCast library with four concentrations, including 20 nM, 200 nM, 2 μM, and 20 μM, for each compound. After 4 days, the cells were fixed with 10% formalin and stained with an INS antibody and DAPI, followed by automatic imaging and analysis by ImageXpress^MICRO Automated High-Content Analysis System (Molecular Devices) to count the numbers of INS^+ and INS^− cells. The survival rate was calculated by dividing the numbers of INS^+ cells in compound treated conditions by the average number of INS^+ cells in DMSO-treated conditions. The compounds that induced more than 60% reduction of the survival rate of INS^+ cells and less than 20% of the INS^− cells were chosen as primary hits. […]
hESCs-derived INS^+ cells, MSCs[43], neurons, and hepatocytes[44] were derived based on the reported protocols and re-plated on 96-well plates with Accutase digestion. […] Plates were analyzed by ImageXpress^MICRO Automated High-Content Analysis System.

GSTT1-/- INS+ cells = experiment: Inhibition curve on INS+ cells derived from GSTT1-/- H1 hESCs; assay type: cell-based, human; conditions: H1 hESC-derived, n = 3; read-out: IC50 for GSTT1-/--1 INS+ cells
Procedure: (§1) hESCs-derived INS^+ cells, MSCs[43], neurons, and hepatocytes[44] were derived based on the reported protocols and re-plated on 96-well plates with Accutase digestion. Cardiomyocytes (CMs) were differentiated from H9-MYH6: mCherry reporter line, based on the reported protocol. After overnight incubation, cells were treated with DMSO or different doses of hit compounds for 4 days. After fixation, the cells were stained with markers for each cell type. DAPI was used to stain cell nuclei. Plates were analyzed by ImageXpress^MICRO Automated High-Content Analysis System.
CRISPR sgRNA sequences were designed using the web resources available at http://www.genome-engineering.org/. The target sequences are listed in Supplementary Table 2. Each target sequence was cloned into the pX330-U6-Chimeric_BB-CBh-hSpCas9 vector (Addgene plasmid #42230) to make the gene targeting constructs. To knockout the target genes, two sgRNAs were validated using the surveyor assay in 293T cells, and we chose 1 sgRNA-construct plasmid for further experiments. After validation, H1 or INS^GFP/W HES3 cells were dissociated using Accutase (STEM CELL) and electroporated (8 × 10^5 cells per sample) with 4 μg sgRNA-construct plasmids using Human Stem Cell Nucleofector^TM solution (Lonza) following manufacturer’s instructions. […] A portion of the cells was analyzed by DNA sequencing. […]

CD29+CD73+ MSCs = experiment: Inhibition curve on hESC-derived MSCs; assay type: cell-based, human; conditions: cell survival rate, 4 days, n=3
Procedure: as §1
Supplementary Figure 4. Assessment of the toxic effect of propargite on different type […]
(a) Flow cytometry char acterization of CD29+ and CD73+ mesenchymal stem cells (MSCs) derived from H1 hESCs. (b-c) microscope image (b) and flow cytometry (c) characterization of cardiomyocytes expressing MYH6+ derived from a MYH6:mCherry reporter hESC line. (d-e) Immunocytochemistry characterization of MAP2+/TUJ1+ and HuC/D+/MAP2+ neurons (d) and A1AT+/ASGPR1+ hepatocytes (e) derived from H1 hESCs. All the cells were counterstained by DAPI (blue). Scale bars, 100 µm. (f) Inhibition curve of propargite on pancreatic β-like cells, MSCs, cardiomyocytes, neurons, and hepatocytes derived from hESCs, and BJ-fibroblasts (n=3). Values presented as mean±S.D. […]

MIN6 cells [1] = experiment: Western blotting of γ-H2A.X and extracellular HMGB1 in MIN6 cells; assay type: cell-based, mouse; conditions: time course 1 to 30 h
Source text: To extract intracellular protein, cells were placed on ice, washed twice with ice-cold PBS and lysed immediately with RIPA buffer (Life Technologies, 89900) supplemented with a protease inhibitor cocktail (Life Technologies, 78440). Cell lysates were then sonicated and the soluble fraction was collected after centrifugation. Protein amount was quantified by the BCA protein assay (Life Technologies, 23227). To extract extracellular HMGB1, tissue culture media were collected and concentrated using Afyon SDS-PAGE sample preparation kit (advansta, K-02101-025). 20 μg of total protein for each sample was mixed with loading buffer and incubated for 5 min at 95 °C before being loaded into NuPAGE® Novex® 4–12% […] Protein Gels (Life Technologies, NP0321BOX) for electrophoresis. Separated proteins were transferred to a PVDF membrane (Millipore, IPSN07852) after electrophoresis. The membrane was blocked with 5% non-fat milk in TBST (50 mM Tris–HCl at pH 8.0, 150 mM NaCl, 0.1% Tween 20) followed by overnight incubation with the primary antibody at 4 °C. The following antibodies were used with the dilution ratio noted: rabbit anti-HMGB1 (1:1000, Cell Signaling Technology, #6893), rabbit anti-γ-H2A.X (1:1000, Cell Signaling Technology, #9718), rabbit anti-LC3B (1:1000, Cell Signaling Technology, #3868), mouse anti-GSTT1 (1:1000, GeneTex, GTX109250), rabbit anti-GSTM1 (1:1000, R&D system, MAB6894), mouse anti-GAPDH (1:50000, Abcam, ab8245). A peroxidase conjugated horse anti-mouse IgG secondary antibody (1:20000, Vector Laboratories, PI-2000) or peroxidase conjugated goat anti-Rabbit IgG secondary antibody (1:20000, Vector Laboratories, PI-1000) was used for western blot. ECL signals were developed and detected using the SuperSignal™ West Femto Maximum Sensitivity Substrate (Life Technologies, 34094) and a C-DiGit Chemiluminescent Western Blot Scanner (LI-COR). Uncropped scans of all the blots were shown in Supplementary Fig. 7 in the Supplementary Information.

MIN6 cells [2] = experiment: Intracellular ROS detection; conditions: propargite-treated MIN6 cells
Procedure: Total intracellular ROS were detected using DCFDA-Cellular Reactive Oxygen Species Detection Assay Kit (Abcam, ab113851).
Species detection for different doses of propargite-treated MIN6 cells (n=3). 50 µM TBHP
was used as a positive control.

“2-(4-tert-butylphenoxy)-cyclohexyl prop-2-yne-1-sulfonate [propargite]” showed an IC50 (INS- cells) of 9.83 µM, an IC50 (GSTT1-/- INS+ cells) of 1.17 µM and an IC50 (CD29+CD73+ MSCs) of 5.85 µM. For the same substance, the “time after treatment at which γ-H2A.X was induced” value (MIN6 cells [1]) was 12 h, the “time after treatment of detection of extracellular HMGB1” value (MIN6 cells [1]) was 18 h and the “reactive oxygen species (ROS)” value (MIN6 cells [2]) was “did not find any increase”.

Source: PMC6240096, “A hPSC-based platform to discover gene-environment interactions that impact human β-cell and dopamine neuron survival” (Nature Communications, 2018)
